Assay type in all cases: functional, cell-based
The target in data set [1] is T1, Solute carrier organic anion transporter family member 1A1 (Rattus norvegicus, UniProt P46720).
T1 sequence (P46720 whole entry): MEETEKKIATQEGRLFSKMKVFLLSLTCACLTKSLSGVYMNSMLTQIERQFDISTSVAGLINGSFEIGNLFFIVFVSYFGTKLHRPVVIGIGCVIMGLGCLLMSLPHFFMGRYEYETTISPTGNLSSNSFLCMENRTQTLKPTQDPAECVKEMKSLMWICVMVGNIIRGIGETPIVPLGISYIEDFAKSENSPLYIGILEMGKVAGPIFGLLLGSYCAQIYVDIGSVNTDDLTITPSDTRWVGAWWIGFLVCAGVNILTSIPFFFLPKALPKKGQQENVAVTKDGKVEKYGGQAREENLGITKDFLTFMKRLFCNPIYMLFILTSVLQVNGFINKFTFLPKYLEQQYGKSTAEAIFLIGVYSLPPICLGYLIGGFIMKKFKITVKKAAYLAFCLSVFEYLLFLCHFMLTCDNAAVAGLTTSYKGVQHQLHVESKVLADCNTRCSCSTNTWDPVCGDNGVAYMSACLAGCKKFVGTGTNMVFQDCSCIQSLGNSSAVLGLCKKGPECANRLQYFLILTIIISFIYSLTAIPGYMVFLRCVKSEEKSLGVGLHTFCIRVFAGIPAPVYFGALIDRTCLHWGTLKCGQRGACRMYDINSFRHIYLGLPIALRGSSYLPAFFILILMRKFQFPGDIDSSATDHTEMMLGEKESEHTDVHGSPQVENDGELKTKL
Briefly: TP_TRANSPORTER: inhibition of Fexofenadine uptake (Fexofenadine: 1 uM, Apple juice: 5 %) in Oatp1-expressing HeLa cells. As to conditions: human.

Data set [2] concerns the target T2, Solute carrier organic anion transporter family member 1A5 (Rattus norvegicus, UniProt O88397).
T2 sequence (O88397 whole entry): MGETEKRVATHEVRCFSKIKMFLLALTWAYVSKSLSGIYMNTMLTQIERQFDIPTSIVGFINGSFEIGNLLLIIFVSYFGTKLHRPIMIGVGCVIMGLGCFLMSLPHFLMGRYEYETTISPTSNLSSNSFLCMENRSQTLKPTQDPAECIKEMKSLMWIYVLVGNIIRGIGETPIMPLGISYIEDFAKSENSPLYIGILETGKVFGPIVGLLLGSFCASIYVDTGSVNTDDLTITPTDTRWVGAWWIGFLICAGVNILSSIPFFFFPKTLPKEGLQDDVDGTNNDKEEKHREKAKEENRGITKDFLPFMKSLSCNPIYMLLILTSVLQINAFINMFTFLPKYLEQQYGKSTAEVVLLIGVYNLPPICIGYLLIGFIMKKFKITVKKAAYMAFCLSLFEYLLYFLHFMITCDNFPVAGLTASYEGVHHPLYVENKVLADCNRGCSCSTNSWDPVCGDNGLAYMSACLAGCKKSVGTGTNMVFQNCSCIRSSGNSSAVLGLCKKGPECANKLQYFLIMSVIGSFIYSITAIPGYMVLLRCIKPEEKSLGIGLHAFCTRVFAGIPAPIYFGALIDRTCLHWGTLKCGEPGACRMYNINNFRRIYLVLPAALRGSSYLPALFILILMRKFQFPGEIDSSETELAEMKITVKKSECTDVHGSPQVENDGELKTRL
Description: TP_TRANSPORTER: inhibition of Fexofenadine uptake (Fexofenadine: 1 uM, Apple juice: 5 %) in Oatp3-expressing HeLa cells. The following applies: human.

For data set [3], the target named is T3, Oatp3 (Solute carrier organic anion transporter family member 1A5) (Rattus norvegicus, UniProt O88397).
T3 sequence (O88397 whole entry): T2 sequence (O88397 whole entry)
Description: TP_TRANSPORTER: inhibition of Fexofenadine uptake (Fexofenadine: 1? uM, Naringin: 5 uM) in Oatp3-expressing HeLa cells. Details: scale not given: the % may be the effect or the level left. As to conditions: human, HeLa cells that express Oatp3, probe fexofenadine; read-out: Activity.

Data set [4] concerns the target T1, Solute carrier organic anion transporter family member 1A1. Briefly: TP_TRANSPORTER: inhibition of Fexofenadine uptake (Fexofenadine: 1 uM, Orange juice: 5 %) in Oatp1-expressing HeLa cells. As to conditions: human.
In data set [5] the target is T4, Solute carrier organic anion transporter family member 1A4 (Rattus norvegicus, UniProt O35913).
T4 sequence (O35913 whole entry): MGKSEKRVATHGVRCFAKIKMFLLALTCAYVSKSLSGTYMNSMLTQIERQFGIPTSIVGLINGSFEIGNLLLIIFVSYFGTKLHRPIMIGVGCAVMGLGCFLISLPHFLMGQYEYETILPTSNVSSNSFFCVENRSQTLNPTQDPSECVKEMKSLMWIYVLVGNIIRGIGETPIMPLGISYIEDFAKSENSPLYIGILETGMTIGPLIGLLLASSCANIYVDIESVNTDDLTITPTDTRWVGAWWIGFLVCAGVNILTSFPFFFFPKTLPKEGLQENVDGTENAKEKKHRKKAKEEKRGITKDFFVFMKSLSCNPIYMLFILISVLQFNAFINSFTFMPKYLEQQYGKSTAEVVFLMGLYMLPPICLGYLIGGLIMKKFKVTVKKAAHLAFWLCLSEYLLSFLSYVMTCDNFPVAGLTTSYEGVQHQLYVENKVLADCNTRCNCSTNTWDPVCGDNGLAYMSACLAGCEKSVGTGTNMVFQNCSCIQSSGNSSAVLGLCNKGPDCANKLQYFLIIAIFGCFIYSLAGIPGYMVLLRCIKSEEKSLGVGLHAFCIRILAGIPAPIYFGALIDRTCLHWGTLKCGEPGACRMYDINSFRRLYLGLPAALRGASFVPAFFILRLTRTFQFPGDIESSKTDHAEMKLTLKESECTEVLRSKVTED
Briefly: TP_TRANSPORTER: inhibition of Fexofenadine uptake (Fexofenadine: 1 uM, Orange juice: 5 %) in Oatp2-expressing HeLa cells. The following applies: human.

Data set [6] addresses T2, Solute carrier organic anion transporter family member 1A5. Description: TP_TRANSPORTER: inhibition of Fexofenadine uptake (Fexofenadine: 1 uM, Orange juice: 5 %) in Oatp3-expressing HeLa cells. As to conditions: human.
Data set [7] deals with T5, Solute carrier organic anion transporter family member 1A2 (Homo sapiens, UniProt P46721).
T5 sequence (P46721 whole entry): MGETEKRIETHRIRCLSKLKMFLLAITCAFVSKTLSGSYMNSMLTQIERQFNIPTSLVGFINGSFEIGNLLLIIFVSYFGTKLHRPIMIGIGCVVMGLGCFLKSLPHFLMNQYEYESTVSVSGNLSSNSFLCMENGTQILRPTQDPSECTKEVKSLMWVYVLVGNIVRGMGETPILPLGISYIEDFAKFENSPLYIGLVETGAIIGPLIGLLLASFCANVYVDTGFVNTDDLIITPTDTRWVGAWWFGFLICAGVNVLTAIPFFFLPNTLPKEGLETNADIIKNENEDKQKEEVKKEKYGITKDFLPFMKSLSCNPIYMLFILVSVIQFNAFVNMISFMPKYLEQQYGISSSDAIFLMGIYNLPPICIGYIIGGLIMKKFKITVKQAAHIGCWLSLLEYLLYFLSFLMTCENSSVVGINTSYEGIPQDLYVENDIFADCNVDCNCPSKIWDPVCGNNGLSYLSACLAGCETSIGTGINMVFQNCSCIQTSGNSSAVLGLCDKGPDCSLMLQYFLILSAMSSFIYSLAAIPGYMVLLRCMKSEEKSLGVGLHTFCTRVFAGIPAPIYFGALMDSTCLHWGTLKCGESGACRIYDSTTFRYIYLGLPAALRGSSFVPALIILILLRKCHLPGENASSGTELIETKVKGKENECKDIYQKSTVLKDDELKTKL
Description: TP_TRANSPORTER: inhibition of Fexofenadine uptake (Fexofenadine: 1 uM, Orange juice: 5 %) in OATP-A-expressing HeLa cells.

Data set [8] addresses T3, Oatp3 (Solute carrier organic anion transporter family member 1A5). Description: TP_TRANSPORTER: inhibition of Fexofenadine uptake (Fexofenadine: 1? uM, Naringenin: 50 uM) in Oatp3-expressing HeLa cells. Also noted: scale not given: the % may be the effect or the level left. As to conditions: human, HeLa cells that express Oatp3, probe fexofenadine; read-out: Activity.

Data set [9] has the same target. Briefly: TP_TRANSPORTER: inhibition of Fexofenadine uptake (Fexofenadine: 1? uM, Quercetin: 5 uM) in Oatp3-expressing HeLa cells. Also noted: scale not given: the % may be the effect or the level left. As to conditions: human, HeLa cells that express Oatp3, probe fexofenadine; read-out: Activity.
Data set [10] has the same target. Description: TP_TRANSPORTER: inhibition of Fexofenadine uptake (Fexofenadine: 1? uM, Hesperidin: 50 uM) in Oatp3-expressing HeLa cells. Also noted: scale not given: the % may be the effect or the level left. As to conditions: human, HeLa cells that express Oatp3, probe fexofenadine; read-out: Activity.
The target is the same in data set [11]. Description: TP_TRANSPORTER: inhibition of Fexofenadine uptake (Fexofenadine: 1? uM, 5-Methoxypsoralen: 50 uM) in Oatp3-expressing HeLa cells. Also noted: scale not given: the % may be the effect or the level left. The following applies: human, HeLa cells that express Oatp3, probe fexofenadine; read-out: Activity.
The target is the same in data set [12]. Description: TP_TRANSPORTER: inhibition of Fexofenadine uptake (Fexofenadine: 1? uM, Hesperitin: 5 uM) in Oatp3-expressing HeLa cells. Details: scale not given: the % may be the effect or the level left. The following applies: human, HeLa cells that express Oatp3, probe fexofenadine; read-out: Activity.
Data set [13] shares this target. Briefly: TP_TRANSPORTER: inhibition of Fexofenadine uptake (Fexofenadine: 1? uM, Bergamottin: 50 uM) in Oatp3-expressing HeLa cells. Also noted: scale not given: the % may be the effect or the level left. As to conditions: human, HeLa cells that express Oatp3, probe fexofenadine; read-out: Activity.
For data set [14] the target is unchanged. Description: TP_TRANSPORTER: inhibition of Fexofenadine uptake (Fexofenadine: 1? uM, 6',7'-Dihydroxybergamottin: 50 uM) in Oatp3-expressing HeLa cells. Details: scale not given: the % may be the effect or the level left. The following applies: human, HeLa cells that express Oatp3, probe fexofenadine; read-out: Activity.
The target in data set [15] is ATP-dependent translocase ABCB1 (Homo sapiens, UniProt P08183). Briefly: TP_TRANSPORTER: inhibition of Vinblastine transepithelial transport (basal to apical) (Vinblastine: 5 uM, Grapefruit juice: 5 %) in MDR1-expressing LLC-PK1 cells. The following applies: pig.
The target in data set [16] is T5, Solute carrier organic anion transporter family member 1A2. Description: TP_TRANSPORTER: inhibition of Fexofenadine uptake (Fexofenadine: 1 uM, Grapefruit juice: 5 %) in OATP-A-expressing HeLa cells.
The target of data set [17] is T1, Solute carrier organic anion transporter family member 1A1. Briefly: TP_TRANSPORTER: inhibition of Fexofenadine uptake (Fexofenadine: 1 uM, Grapefruit juice: 5 %) in Oatp1-expressing HeLa cells. As to conditions: human.
For data set [18], the target named is T4, Solute carrier organic anion transporter family member 1A4. Briefly: TP_TRANSPORTER: inhibition of Fexofenadine uptake (Fexofenadine: 1 uM, Grapefruit juice: 5 %) in Oatp2-expressing HeLa cells. The following applies: human.

ATP-dependent translocase ABCB1, sequence (P08183 whole entry): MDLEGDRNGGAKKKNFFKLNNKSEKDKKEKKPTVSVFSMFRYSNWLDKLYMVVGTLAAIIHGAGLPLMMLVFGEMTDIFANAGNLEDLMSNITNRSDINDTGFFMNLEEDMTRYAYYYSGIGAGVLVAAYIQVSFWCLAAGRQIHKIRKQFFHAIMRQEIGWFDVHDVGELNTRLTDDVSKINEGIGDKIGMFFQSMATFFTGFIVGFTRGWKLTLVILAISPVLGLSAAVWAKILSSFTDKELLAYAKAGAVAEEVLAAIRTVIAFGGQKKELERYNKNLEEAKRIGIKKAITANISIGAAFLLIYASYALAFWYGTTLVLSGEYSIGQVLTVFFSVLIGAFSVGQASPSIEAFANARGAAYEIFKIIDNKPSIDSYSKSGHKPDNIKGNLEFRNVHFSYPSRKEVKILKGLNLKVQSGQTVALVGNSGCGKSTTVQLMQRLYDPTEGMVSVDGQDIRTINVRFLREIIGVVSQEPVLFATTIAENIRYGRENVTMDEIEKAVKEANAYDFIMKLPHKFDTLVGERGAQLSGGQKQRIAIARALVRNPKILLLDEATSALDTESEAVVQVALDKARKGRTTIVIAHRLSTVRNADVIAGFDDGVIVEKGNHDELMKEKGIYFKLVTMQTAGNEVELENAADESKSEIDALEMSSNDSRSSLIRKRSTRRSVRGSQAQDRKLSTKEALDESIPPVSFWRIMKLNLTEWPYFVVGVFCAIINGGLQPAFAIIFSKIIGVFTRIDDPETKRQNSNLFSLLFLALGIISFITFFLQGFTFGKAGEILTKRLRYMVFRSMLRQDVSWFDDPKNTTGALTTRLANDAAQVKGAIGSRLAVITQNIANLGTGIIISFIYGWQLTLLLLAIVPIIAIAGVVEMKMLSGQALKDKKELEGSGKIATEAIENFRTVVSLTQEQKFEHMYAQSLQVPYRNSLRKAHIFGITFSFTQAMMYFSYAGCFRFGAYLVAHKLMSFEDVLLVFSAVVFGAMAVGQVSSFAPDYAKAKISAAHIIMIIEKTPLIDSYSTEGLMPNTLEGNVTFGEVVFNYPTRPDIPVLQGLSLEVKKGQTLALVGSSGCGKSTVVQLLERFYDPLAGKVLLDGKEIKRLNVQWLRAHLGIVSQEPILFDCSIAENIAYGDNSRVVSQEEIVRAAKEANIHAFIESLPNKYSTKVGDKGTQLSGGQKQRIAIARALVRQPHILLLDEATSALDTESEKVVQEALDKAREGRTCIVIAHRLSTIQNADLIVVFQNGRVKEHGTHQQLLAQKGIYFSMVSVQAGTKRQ

As for APPLE JUICE, the Activity result in [1] and in data set [2] was “inhibitor [(at a rough estimate) 5 % of control]” throughout.
In the case of `C[C@@H]1O[C@@H](O[C@H]2[C@H](Oc3cc(O)c4c(c3)O[C@H](c3ccc(O)cc3)CC4=O)O[C@H](CO)[C@@H](O)[C@@H]2O)[C@H](O)[C@H](O)[C@H]1O` [NARINGIN], the activity at 5 µM in data set [3] was determined as 36%.
As for ORANGE JUICE, the Activity result in [4] was “inhibitor [(at a rough estimate) 25 % of control]”; in data set [5], “inhibitor [(at a rough estimate) <5 % of control]”; in data set [6] it was “inhibitor [(at a rough estimate) 10 % of control]”; in [7] it was “inhibitor [(at a rough estimate) 10 % of control]”.
On to `O=C1C[C@@H](c2ccc(O)cc2)Oc2cc(O)cc(O)c21` [NARINGENIN], for which, in [8], the activity at 50 µM came out at 10%.
`O=c1c(O)c(-c2ccc(O)c(O)c2)oc2cc(O)cc(O)c12` [QUERCETIN]: the activity at 5 µM in data set [9] was determined as 52%.
Take `COc1ccc([C@@H]2CC(=O)c3c(O)cc(O[C@@H]4O[C@H](CO[C@@H]5O[C@@H](C)[C@H](O)[C@@H](O)[C@H]5O)[C@@H](O)[C@H](O)[C@H]4O)cc3O2)cc1O` [HESPERIDIN]: the activity at 50 µM in [10] came out at 51%.
As for `COc1c2ccoc2cc2oc(=O)ccc12` [BERGAPTEN], in data set [11], the activity at 50 µM was 32%.
Regarding `COc1ccc([C@@H]2CC(=O)c3c(O)cc(O)cc3O2)cc1O` [HESPERETIN], the activity at 5 µM in data set [12] amounted to 40%.
For `CC(C)=CCC/C(C)=C/COc1c2ccoc2cc2oc(=O)ccc12` [BERGAMOTTIN], the activity at 50 µM in data set [13] was found to be 22%.
On to `C/C(=C\COc1c2ccoc2cc2oc(=O)ccc12)CC[C@@H](O)C(C)(C)O`, for which, in [14], the activity at 50 µM was found to be 22%.
As for GRAPEFRUIT JUICE, the Activity entry is “is not an inhibitor [-]” in [15], “inhibitor [(at a rough estimate) 10 % of control]” in data set [16], “inhibitor [(at a rough estimate) <0 % of control]” in data set [17] and “inhibitor [(at a rough estimate) 20 % of control]” in data set [18].

For the origin of these results see ChEMBL document CHEMBL2074249, “Fruit juices inhibit organic anion transporting polypeptide-mediated drug uptake to decrease the oral availability of fexofenadine” (Clin Pharmacol Ther, 2002).
